Reference: PubChem BioAssay (NCI)
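All cell lines were grown in 96-well plates and treated with compound for 48 hours. At the TGI there is no net growth.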

Key:
Assay in all cases: NCI tumour cell line growth inhibition, 48 h
MDA-N = tested on: MDA-N
PC-3 prostate = tested on: PC-3 prostate
T-47D breast = tested on: T-47D breast
BT-549 breast = tested on: BT-549 breast
HOP-62 NSCLC = tested on: HOP-62 NSCLC
DMS 114 small cell lung = tested on: DMS 114 small cell lung
LXFL 529 NSCLC = tested on: LXFL 529 NSCLC
P388 leukemia = tested on: P388 leukemia
P388/ADR leukemia = tested on: P388/ADR leukemia
SN12K1 renal = tested on: SN12K1 renal
SNB-78 CNS = tested on: SNB-78 CNS

Compound	TGI (MDA-N)	TGI (PC-3 prostate)	TGI (T-47D breast)	TGI (BT-549 breast)	TGI (HOP-62 NSCLC)	TGI (DMS 114 small cell lung)	TGI (LXFL 529 NSCLC)	TGI (P388 leukemia)	TGI (P388/ADR leukemia)	TGI (SN12K1 renal)	TGI (SNB-78 CNS)
NC(CCCCCCCCCCP(=O)(O)O)C(=O)O (stereo unspecified)	> 100 µM	> 100 µM	> 100 µM	–	–	–	–	–	–	–	–
NC(N)=Nc1ccc(-c2ccc(N=C(N)N)cc2)cc1	> 100 µM	75.9 µM	> 100 µM	> 100 µM	> 100 µM	–	–	–	–	–	–
O=C1N(Cl)C(=O)C(c2ccc(Cl)cc2)(c2ccc(Cl)cc2)N1Cl	–	–	–	–	–	> 100 µM	> 100 µM	–	–	–	–
N/C(=N\N=C/c1ccc(O)c(O)c1O)NO	–	–	–	–	> 56.4 µM	54.8 µM	–	29.4 µM	41.6 µM	34.7 µM	> 79.4 µM
